The experiment concerns the target LSD-1 enzyme (Homo sapiens (Human), UniProt O60341). In words: LANCE LSD1/KDM1A demethylase assay (LSD1 histone demethylase biochemical assay). The settings on record: 1 nM LSD-1 enzyme, 1 hour preincubation at 25° C., 0.4 μM Biotin-labeled Histone H3 peptide substrate. Here is the method: LANCE LSD1/KDM1A demethylase assay—10 μL of 1 nM LSD-1 enzyme (ENZO BML-SE544-0050) in the assay buffer (50 mM Tris, pH 7.5, 0.01% Tween-20, 25 mM NaCl, 5 mM DTT) were preincubated for 1 hour at 25° C. with 0.8 μL compound/DMSO dotted in black 384 well polystyrene plates. […] After stopping the reactions plates were incubated for 30 minutes and read on a PHERAstar FS plate reader (BMG Labtech).
On the technique in general: In TR-FRET formats the signal depends on donor and acceptor labels being close together.

A value given as a limit tells only on which side of the number the result lay.

For orientation: IC50 means the concentration at which inhibition is half-maximal. Higher therefore signals weaker potency.

For the compound `CS(=O)(=O)N1CC(CCO)(N2CCC(N[C@@H]3C[C@H]3c3ccccc3)CC2)C1` [Example 93, 2-[1-(methylsulfonyl)-3-(4-{[(1R,2S)-2-phenylcyclopropyl]amino}piperidin-1-yl)azetidin-3-yl]ethanol], the IC50 is less than 100 nM.

Values taken from patent US10676457B2, “Cyclopropylamines as LSD1 inhibitors” (Incyte Corporation, priority 2014, dated 2020).
